Experimental data from US4325949A, “Combinations of agents which give enhanced anti-inflammatory activity” (American Cyanamid Company, priority 1980, dated 1982).
Where “and” joins values, the source holds several entries; their conditions need not be identical. Equal values may be shown once.

What was measured:
[1] = test system: adjuvant induced arthritis; experiment: adjuvant induced arthritis test in the rat (primary and secondary lesions); assay type: in vivo, rat (Royal Hart, Wistar strain)
Protocol: (§1) Groups of three Royal Hart, Wistar strain rats, weighing 200±10 g. each were injected intradermally in the right hind paw with Freund's adjuvant (dried human tubercle bacilli in a mineral oil vehicle) at a dose of 2 mg./kg. of body weight. Test compositions were administered orally in a 1.5% starch vehicle at various doses once daily on days 0 through 13 post challenge. Control rats were treated in a similar manner, but given only starch vehicle. On the 14th, 21st, 28th and 35th days post challenge the diameter of the injected paw (primary lesion) was measured by micrometer caliper. The volume of inflamed paws were estimated from these measurements and the results are expressed as percent inhibition of swelling as compared to controls. At the same time, the other inflamed sites, such as ears, paws and tail (secondary lesions) were observed and each rat was graded as to degree of inflammation and swelling present. The grading is based on a scale of 0 to 24, where 0 represents a complete absence of induced arthritic modules and 24 represents the maximum degree of inflammation. The mean grade for each treated group is calculated and the effects of each test compound are expressed as percent inhibition of the control grade. The following Tables I-V record the results of tests conducted with the compositions of this invention and conventional anti-inflammatory agents both separately and in combination. All tests were replicated several times. Each treatment group represents a total of 18 rats. Each challenged control group comprised 36 rats and each unchallenged control group was 9 rats.

[2] = body weight gain in the adjuvant induced arthritis test in the rat; assay type: in vivo, rat (Royal Hart, Wistar strain)
Protocol: as §1

[3] = oral 50 mg/kg once daily, day 14
[4] = oral 50 mg/kg once daily, day 21
[5] = oral 50 mg/kg once daily, day 28
[6] = oral 50 mg/kg once daily, day 35
[7] = oral 5 mg/kg once daily, day 14
[8] = oral 5 mg/kg once daily, day 21
[9] = oral 5 mg/kg once daily, day 28
[10] = oral 5 mg/kg once daily, day 35
[11] = oral 10 mg/kg once daily, day 14
[12] = oral 10 mg/kg once daily, day 21
[13] = oral 10 mg/kg once daily, day 28
[14] = oral 10 mg/kg once daily, day 35
[15] = oral 25 mg/kg once daily, day 14
[16] = oral 25 mg/kg once daily, day 21
[17] = oral 100 mg/kg once daily, day 14
[18] = oral 100 mg/kg once daily, day 21
[19] = oral 25 mg/kg once daily, day 28
[20] = oral 25 mg/kg once daily, day 35
[21] = oral 100 mg/kg once daily, day 21, 100 mg/kg
[22] = oral 12.5 mg/kg once daily, day 14, 12.5 mg/kg
[23] = oral 12.5 mg/kg once daily, day 21, 12.5 mg/kg
[24] = oral 12.5 mg/kg once daily, day 28
[25] = oral 12.5 mg/kg once daily, day 35, 12.5 mg/kg
[26] = oral 25 mg/kg once daily, day 14, 25 mg/kg
[27] = oral 25 mg/kg once daily, day 21, 25 mg/kg
[28] = oral 25 mg/kg once daily, day 28, 25 mg/kg
[29] = oral 25 mg/kg once daily, day 35, 25 mg/kg

SMILES: N#CC=C(N)c1cccs1 [β-Amino-2-thiopheneacrylonitrile]
- Primary Lesions (% Inhibition) [1, 3]: 16%
- Secondary Lesions (% Inhibition) [1, 3]: 13%
- Primary Lesions (% Inhibition) [1, 4]: 14%
- Secondary Lesions (% Inhibition) [1, 4]: 0%
- Primary Lesions (% Inhibition) [1, 5]: 6%
- Secondary Lesions (% Inhibition) [1, 5]: 4%
- Primary Lesions (% Inhibition) [1, 6]: 1%
- Secondary Lesions (% Inhibition) [1, 6]: 11%
- Body Weight Gain in Grams [2, 3]: 63 Grams
- Body Weight Gain in Grams [2, 4]: 66 Grams
- Body Weight Gain in Grams [2, 5]: 76 Grams
- Body Weight Gain in Grams [2, 6]: 108 Grams

SMILES: C[C@]12C=CC(=O)C=C1CC[C@@H]1[C@@H]2[C@@H](O)C[C@@]2(C)[C@H]1CC[C@]2(O)C(=O)CO [Prednisolone, reference compound]
- Primary Lesions (% Inhibition) [1, 7]: 63%
- Secondary Lesions (% Inhibition) [1, 7]: 45%
- Primary Lesions (% Inhibition) [1, 8]: 24%
- Secondary Lesions (% Inhibition) [1, 8]: 16%
- Primary Lesions (% Inhibition) [1, 9]: 17%
- Secondary Lesions (% Inhibition) [1, 9]: 5%
- Primary Lesions (% Inhibition) [1, 10]: 11%
- Secondary Lesions (% Inhibition) [1, 10]: 20%
- Primary Lesions (% Inhibition) [1, 11]: 57%
- Secondary Lesions (% Inhibition) [1, 11]: 55%
- Primary Lesions (% Inhibition) [1, 12]: 24%
- Secondary Lesions (% Inhibition) [1, 12]: 21%
- Primary Lesions (% Inhibition) [1, 13]: 14%
- Secondary Lesions (% Inhibition) [1, 13]: 3%
- Primary Lesions (% Inhibition) [1, 14]: 13%
- Secondary Lesions (% Inhibition) [1, 14]: 17%
- Body Weight Gain in Grams [2, 7]: 22 Grams
- Body Weight Gain in Grams [2, 8]: 26 Grams
- Body Weight Gain in Grams [2, 9]: 44 Grams
- Body Weight Gain in Grams [2, 10]: 71 Grams
- Body Weight Gain in Grams [2, 11]: 23 Grams
- Body Weight Gain in Grams [2, 12]: 47 Grams
- Body Weight Gain in Grams [2, 13]: 75 Grams
- Body Weight Gain in Grams [2, 14]: 95 Grams

SMILES: N#CCC(=N)c1ccccc1 [Benzimidoylacetonitrile]
- Primary Lesions (% Inhibition) [1, 15]: 56%
- Secondary Lesions (% Inhibition) [1, 15]: 63%
- Primary Lesions (% Inhibition) [1, 16]: 33%
- Secondary Lesions (% Inhibition) [1, 16]: 24%
- Primary Lesions (% Inhibition) [1, 3]: 68%
- Secondary Lesions (% Inhibition) [1, 3]: 70%
- Primary Lesions (% Inhibition) [1, 4]: 58%
- Secondary Lesions (% Inhibition) [1, 4]: 43%
- Primary Lesions (% Inhibition) [1, 17]: 68%
- Secondary Lesions (% Inhibition) [1, 17]: 75%
- Primary Lesions (% Inhibition) [1, 18]: 55%
- Secondary Lesions (% Inhibition) [1, 18]: 34%
- Body Weight Gain in Grams [2, 15]: 72 Grams
- Body Weight Gain in Grams [2, 16]: 66 Grams
- Body Weight Gain in Grams [2, 3]: 77 Grams
- Body Weight Gain in Grams [2, 4]: 80 Grams
- Body Weight Gain in Grams [2, 17]: 70 Grams
- Body Weight Gain in Grams [2, 18]: 88 Grams

SMILES: N#CCC(=O)c1ccc(F)cc1 [(p-Fluorobenzoyl)-acetonitrile]
- Primary Lesions (% Inhibition) [1, 15]: 30%
- Secondary Lesions (% Inhibition) [1, 15]: 23%
- Primary Lesions (% Inhibition) [1, 16]: 17%
- Secondary Lesions (% Inhibition) [1, 16]: 0%
- Primary Lesions (% Inhibition) [1, 19]: 0%
- Secondary Lesions (% Inhibition) [1, 19]: 0%
- Primary Lesions (% Inhibition) [1, 20]: 6%
- Secondary Lesions (% Inhibition) [1, 20]: 7%
- Primary Lesions (% Inhibition) [1, 3]: 53%
- Secondary Lesions (% Inhibition) [1, 3]: 34%
- Primary Lesions (% Inhibition) [1, 4]: 32%
- Secondary Lesions (% Inhibition) [1, 4]: 10%
- Primary Lesions (% Inhibition) [1, 5]: 27%
- Secondary Lesions (% Inhibition) [1, 5]: 28%
- Primary Lesions (% Inhibition) [1, 6]: 22%
- Secondary Lesions (% Inhibition) [1, 6]: 19%
- Body Weight Gain in Grams [2, 15]: 71 Grams
- Body Weight Gain in Grams [2, 16]: 65 Grams
- Body Weight Gain in Grams [2, 19]: 80 Grams
- Body Weight Gain in Grams [2, 20]: 111 Grams
- Body Weight Gain in Grams [2, 3]: 75 Grams
- Body Weight Gain in Grams [2, 4]: 77 Grams
- Body Weight Gain in Grams [2, 5]: 93 Grams
- Body Weight Gain in Grams [2, 6]: 125 Grams

SMILES: CC(=O)Oc1ccccc1C(=O)O [Aspirin, 2-(acetyloxy)benzoic acid, reference compound]
- Primary Lesions (% Inhibition) ([1]; oral 50 mg/kg once daily, day 14, 50 mg/kg): 21% and 16%
- Secondary Lesions (% Inhibition) ([1]; oral 50 mg/kg once daily, day 21, 50 mg/kg): 12% and 10%
- Secondary Lesions (% Inhibition) ([1]; oral 50 mg/kg once daily, day 28, 50 mg/kg): 31% and 20%
- Primary Lesions (% Inhibition) [1, 6]: 0%
- Primary Lesions (% Inhibition) [1, 21]: 8% and 2%
- Primary Lesions (% Inhibition) ([1]; oral 100 mg/kg once daily, day 35, 100 mg/kg): 5% and 1%
- Body Weight Gain in Grams ([2]; oral 100 mg/kg once daily, day 14, 100 mg/kg): 45 Grams and 47 Grams
- Body Weight Gain in Grams [2, 21]: 42 Grams and 46 Grams
- Body Weight Gain in Grams ([2]; oral 100 mg/kg once daily, day 28, 100 mg/kg): 44 Grams and 57 Grams

SMILES: N#CCC(=O)c1ccccc1 [Benzoylacetonitrile]
- Primary Lesions (% Inhibition) [1, 22]: 44% and 49%
- Secondary Lesions (% Inhibition) [1, 22]: 45% and 59%
- Primary Lesions (% Inhibition) [1, 23]: 16% and 32%
- Secondary Lesions (% Inhibition) [1, 24]: 25%
- Secondary Lesions (% Inhibition) [1, 25]: 22% and 26%
- Primary Lesions (% Inhibition) [1, 26]: 60% and 62% and 36%
- Secondary Lesions (% Inhibition) [1, 26]: 70% and 62% and 50%
- Primary Lesions (% Inhibition) [1, 27]: 36% and 38% and 24%
- Secondary Lesions (% Inhibition) [1, 28]: 20% and 19%
- Secondary Lesions (% Inhibition) [1, 29]: 38% and 20%
- Primary Lesions (% Inhibition) [1, 3]: 60%
- Secondary Lesions (% Inhibition) [1, 3]: 66%
- Primary Lesions (% Inhibition) [1, 4]: 45%
- Secondary Lesions (% Inhibition) [1, 4]: 43%
- Primary Lesions (% Inhibition) [1, 17]: 55%
- Secondary Lesions (% Inhibition) [1, 17]: 76%
- Primary Lesions (% Inhibition) [1, 18]: 54%
- Secondary Lesions (% Inhibition) [1, 18]: 56%
- Body Weight Gain in Grams [2, 22]: 57 Grams and 49 Grams
- Body Weight Gain in Grams [2, 23]: 53 Grams and 38 Grams
- Body Weight Gain in Grams [2, 24]: 55 Grams
- Body Weight Gain in Grams [2, 25]: 81 Grams and 68 Grams
- Body Weight Gain in Grams [2, 26]: 52 Grams and 47 Grams and 57 Grams
- Body Weight Gain in Grams [2, 27]: 52 Grams and 47 Grams and 57 Grams
- Body Weight Gain in Grams [2, 28]: 75 Grams and 51 Grams
- Body Weight Gain in Grams [2, 29]: 86 Grams and 69 Grams
- Body Weight Gain in Grams [2, 3]: 58 Grams
- Body Weight Gain in Grams [2, 4]: 62 Grams
- Body Weight Gain in Grams [2, 17]: 56 Grams
- Body Weight Gain in Grams [2, 18]: 79 Grams
